Assay results: the supplement of paper PMC10627819

What was measured:
S. aureus Newman [1] = test: fitness (endpoint OD595 vs no drug) (fraction); higher = more growth
Outline: (§1)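 Bacterial growth was followed in 384-well plates seeded at OD595 0.01, with 30 µl per well, or 55 µl for S. pneumoniae, in TSB, LB Lennox or CY at 37 °C. OD595 was read every 30 min for 14 h, and each reading had the first reading subtracted as background. Fitness is the background-corrected optical density at entry into stationary phase divided by the robust mean of the no-drug control wells. This ratio is capped at 1.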

S. pneumoniae D39V [2] = test: as above
Outline: as §1

B. subtilis 168 = test: Bliss interaction score (quartile over a dose matrix) (fitness difference); higher = more antagonism (negative = synergy)
Outline: (§2)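 Fitness here means normalised growth, inferred for single drugs from the combination data. Growth was OD595 at entry into stationary phase, divided by the plate's robust no-drug mean and capped at 1. The Bliss score is observed minus expected fitness, with the expectation being the product, and its quartiles span technical, biological and donor/recipient replicates.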

S. aureus DSM 20231 = test: as above
Outline: as §2

S. aureus Newman [3] = test: as above
Outline: as §2

S. pneumoniae D39V [4] = test: as above
Outline: as §2
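Wherever Bliss interaction score (quartile over a dose matrix) is given: first quartile when negative (synergy) and third quartile when positive (antagonism).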

With O=C(O)c1cn(C2CC2)c2cc(N3CCNCC3)c(F)cc2c1=O [Ciprofloxacin] + Cn1nnc(-c2ccc(-c3ccc(N4C[C@H](CO)OC4=O)cc3F)cn2)n1 [Tedizolid] the fitness (S. aureus Newman [1]; first compound 0.0375 µg/mL, partner 0.125 µg/mL) was 0.633, the fitness (S. aureus Newman [1]; first compound 0.075 µg/mL, partner 0.0625 µg/mL) was 0.56 and the fitness (S. aureus Newman [1]; first compound 0.075 µg/mL, partner 0.125 µg/mL) was 0.592. For the same molecule, the fitness (S. aureus Newman [1]; first compound 0.075 µg/mL, partner 0.25 µg/mL) was 0.423, the fitness (S. aureus Newman [1]; first compound 0.15 µg/mL, partner 0.25 µg/mL) was 0.13 and the fitness (S. pneumoniae D39V [2]; first compound 0.125 µg/mL, partner 0.03125 µg/mL) was 0.935. The fitness (S. pneumoniae D39V [2]; first compound 0.125 µg/mL, partner 0.0625 µg/mL) was 0.95, the fitness (S. pneumoniae D39V [2]; first compound 0.125 µg/mL, partner 0.125 µg/mL) was 0.771 and the fitness (S. pneumoniae D39V [2]; first compound 0.125 µg/mL, partner 0.25 µg/mL) was 0.331. It also gave a fitness (S. pneumoniae D39V [2]; first compound 0.125 µg/mL, partner 0.5 µg/mL) of 0.102, a fitness (S. pneumoniae D39V [2]; first compound 0.25 µg/mL, partner 0.03125 µg/mL) of 0.913 and a fitness (S. pneumoniae D39V [2]; first compound 0.25 µg/mL, partner 0.0625 µg/mL) of 0.945. It also gave a fitness (S. pneumoniae D39V [2]; first compound 0.25 µg/mL, partner 0.125 µg/mL) of 0.703, a fitness (S. pneumoniae D39V [2]; first compound 0.25 µg/mL, partner 0.25 µg/mL, one replicate) of 0.257 and a fitness (S. pneumoniae D39V [2]; first compound 0.25 µg/mL, partner 0.5 µg/mL, one replicate) of 0.0574. The fitness (S. pneumoniae D39V [2]; first compound 0.5 µg/mL, partner 0.03125 µg/mL) was 0.828, the fitness (S. pneumoniae D39V [2]; first compound 0.5 µg/mL, partner 0.0625 µg/mL) was 0.889 and the fitness (S. pneumoniae D39V [2]; first compound 0.5 µg/mL, partner 0.25 µg/mL) was 0.292. It also gave a fitness (S. pneumoniae D39V [2]; first compound 0.5 µg/mL, partner 0.5 µg/mL) of 0.0949, a Bliss interaction score (B. subtilis 168) of 0.26 and a Bliss interaction score (S. aureus DSM 20231) of 0.0744. It also gave a Bliss interaction score (S. aureus Newman [3]) of 0.0978 and a Bliss interaction score (S. pneumoniae D39V [4]) of -0.0691.
COc1cccc2c1C(=O)c1c(O)c3c(c(O)c1C2=O)C[C@@](O)(C(=O)CO)C[C@@H]3O[C@H]1C[C@H](N)[C@H](O)[C@H](C)O1 [Doxorubicin] + C/C(=C\C(=O)OCCCCCCCCC(=O)O)C[C@@H]1OC[C@H](C[C@@H]2O[C@H]2[C@@H](C)[C@H](C)O)[C@@H](O)[C@H]1O [Pseudomonic acid] was tested, and the fitness (S. aureus Newman [1]; first compound 0.625 µg/mL, partner 0.0313 µg/mL, one replicate) was 0.0603, the fitness (S. aureus Newman [1]; first compound 0.625 µg/mL, partner 0.0625 µg/mL, one replicate) was 0.0314 and the fitness (S. aureus Newman [1]; first compound 0.625 µg/mL, partner 0.125 µg/mL, one replicate) was 0.0395. It also gave a fitness (S. aureus Newman [1]; first compound 1.25 µg/mL, partner 0.0313 µg/mL, one replicate) of 0.0435, a fitness (S. aureus Newman [1]; first compound 1.25 µg/mL, partner 0.0625 µg/mL, one replicate) of 0.0203 and a fitness (S. aureus Newman [1]; first compound 1.25 µg/mL, partner 0.125 µg/mL, one replicate) of 0.0395. For the same molecule, the fitness (S. aureus Newman [1]; first compound 2.5 µg/mL, partner 0.0313 µg/mL, one replicate) was 0.0003, the fitness (S. aureus Newman [1]; first compound 2.5 µg/mL, partner 0.0625 µg/mL, one replicate) was 0.0075 and the fitness (S. aureus Newman [1]; first compound 2.5 µg/mL, partner 0.125 µg/mL, one replicate) was 0.0206. The fitness (S. pneumoniae D39V [2]; first compound 0.25 µg/mL, partner 0.03 µg/mL) was 0.916, the fitness (S. pneumoniae D39V [2]; first compound 0.25 µg/mL, partner 0.06 µg/mL) was 0.73 and the fitness (S. pneumoniae D39V [2]; first compound 0.25 µg/mL, partner 0.12 µg/mL) was 0.484. It also gave a fitness (S. pneumoniae D39V [2]; first compound 0.5 µg/mL, partner 0.03 µg/mL) of 0.893, a fitness (S. pneumoniae D39V [2]; first compound 0.5 µg/mL, partner 0.06 µg/mL) of 0.756 and a fitness (S. pneumoniae D39V [2]; first compound 0.5 µg/mL, partner 0.12 µg/mL) of 0.435. It also gave a fitness (S. pneumoniae D39V [2]; first compound 1 µg/mL, partner 0.03 µg/mL) of 0.887, a fitness (S. pneumoniae D39V [2]; first compound 1 µg/mL, partner 0.06 µg/mL) of 0.681 and a fitness (S. pneumoniae D39V [2]; first compound 1 µg/mL, partner 0.12 µg/mL) of 0.381. It also gave a Bliss interaction score (B. subtilis 168) of 0.12, a Bliss interaction score (S. aureus DSM 20231) of -0.0156 and a Bliss interaction score (S. aureus Newman [3]) of -0.0226. For the same molecule, the Bliss interaction score (S. pneumoniae D39V [4]) was -0.079.
C[C@@H]1O[C@@H]1P(=O)(O)O [Fosfomycin] + C/C(=C\C(=O)OCCCCCCCCC(=O)O)C[C@@H]1OC[C@H](C[C@@H]2O[C@H]2[C@@H](C)[C@H](C)O)[C@@H](O)[C@H]1O [Pseudomonic acid] showed a fitness (S. aureus Newman [1]; first compound 0.781 µg/mL, partner 0.0313 µg/mL, one replicate) of 0.0359, a fitness (S. aureus Newman [1]; first compound 0.781 µg/mL, partner 0.0625 µg/mL, one replicate) of 0.0247 and a fitness (S. aureus Newman [1]; first compound 0.781 µg/mL, partner 0.125 µg/mL, one replicate) of 0.0275. It also gave a fitness (S. aureus Newman [1]; first compound 1.562 µg/mL, partner 0.0313 µg/mL, one replicate) of 0.0031, a fitness (S. aureus Newman [1]; first compound 1.562 µg/mL, partner 0.0625 µg/mL, one replicate) of 0.0394 and a fitness (S. aureus Newman [1]; first compound 1.562 µg/mL, partner 0.125 µg/mL, one replicate) of 0.0351. For the same molecule, the fitness (S. aureus Newman [1]; first compound 3.124 µg/mL, partner 0.0313 µg/mL, one replicate) was 0.0112, the fitness (S. aureus Newman [1]; first compound 3.124 µg/mL, partner 0.0625 µg/mL, one replicate) was 0.0147 and the fitness (S. aureus Newman [1]; first compound 3.124 µg/mL, partner 0.125 µg/mL, one replicate) was 0.0342. For the same molecule, the fitness (S. pneumoniae D39V [2]; first compound 1.25 µg/mL, partner 0.03 µg/mL) was 0.928, the fitness (S. pneumoniae D39V [2]; first compound 1.25 µg/mL, partner 0.06 µg/mL) was 0.803 and the fitness (S. pneumoniae D39V [2]; first compound 1.25 µg/mL, partner 0.12 µg/mL) was 0.531. The fitness (S. pneumoniae D39V [2]; first compound 2.5 µg/mL, partner 0.03 µg/mL) was 0.937, the fitness (S. pneumoniae D39V [2]; first compound 2.5 µg/mL, partner 0.06 µg/mL) was 0.882 and the fitness (S. pneumoniae D39V [2]; first compound 2.5 µg/mL, partner 0.12 µg/mL) was 0.454. For the same molecule, the fitness (S. pneumoniae D39V [2]; first compound 5 µg/mL, partner 0.03 µg/mL) was 0.868, the fitness (S. pneumoniae D39V [2]; first compound 5 µg/mL, partner 0.12 µg/mL) was 0.201 and the Bliss interaction score (B. subtilis 168) was 0.0483. The Bliss interaction score (S. aureus DSM 20231) was 0.0164, the Bliss interaction score (S. aureus Newman [3]) was -0.0091 and the Bliss interaction score (S. pneumoniae D39V [4]) was -0.0714.
